No end group written: not given here.
Legend:
Assay in all cases: biochemical
Type in all cases: binding
HLA-A*0201 (HLA-A2.1) = HLA-A*0201 (HLA-A2.1) (Homo sapiens, UniProt P04439, D140Y/D185E/D98H/E176V/E277Q/G131W/G231S/I119V/I121R/I166T/I218V/L300P/L318F/N151K/N90K/P208A/P217A/Q86G/Q94H/R138H/R169H/T345S)
A*0202 = A*0202 (Homo sapiens, UniProt P04439, D140Y/D185E/D98H/E176V/E277Q/G131W/G231S/I119L/I121R/I166T/I218V/L180W/L300P/L318F/N151K/N90K/P208A/P217A/Q67R/Q86G/Q94H/R138H/R169H/T345S)
A*0203 = A*0203 (Homo sapiens, UniProt P04439, A173T/D140Y/D185E/D98H/E277Q/G131W/G231S/I119V/I121R/I166T/I218V/L180W/L300P/L318F/N151K/N90K/P208A/P217A/Q86G/Q94H/R138H/R169H/T345S)
A*0206 = A*0206 (Homo sapiens, UniProt P04439, D140Y/D185E/D98H/E176V/E277Q/F33Y/G131W/G231S/I119V/I121R/I166T/I218V/L300P/L318F/N151K/N90K/P208A/P217A/Q86G/Q94H/R138H/R169H/T345S)
A*6802 = A*6802 (Homo sapiens, UniProt P04439, A269V/D140Y/D185E/E176V/E277Q/E87N/F33Y/G231S/I121R/I166T/I218V/L180W/L300P/L318F/N151K/P208A/P217A/Q86R/R138H/R169H/S129P/T345S/V36M)

Row | Molecule | IC50 (HLA-A*0201 (HLA-A2.1)) [µM] | IC50 (A*0202) [µM] | IC50 (A*0203) [µM] | IC50 (A*0206) [µM] | IC50 (A*6802) [µM]
1 | TLKLTIEST [Peptide 9013.0010] | 18.3 | 0.08 | 0.024 | > 20 | > 20
2 | RMLQQLLFI [Peptide 1525.12] | 0.015 | 0.128 | 0.012 | 0.016 | 18.7
3 | IIQNDTGFYV [Peptide 9013.0146] | 0.155 | 0.025 | 0.548 | 0.201 | 2.6
4 | IQGAVISFV [Peptide 1578.13] | 0.045 | 0.012 | 0.013 | 0.035 | 4.88
5 | KLTFLCVTL [Peptide 1516.14] | 0.019 | 0.003 | 0.041 | 0.123 | > 20
6 | FLQGAIISFV [Peptide 1578.27] | 0.045 | 0.00065 | 0.0066 | 0.069 | 0.086
7 | CC(C)C[C@H](NC(=O)[C@@H](N)CCCNC(=N)N)C(=O)N1CCC[C@H]1C(=O)N[C@@H](CCC(=O)O)C(=O)N[C@@H](C)C(=O)N[C@@H](C)C(=O)N1CCC[C@H]1C(=O)N1CCC[C@H]1C(=O)N[C@H](C(=O)N[C@H](C(=O)O)C(C)C)C(C)C [Peptide 1323.17] | 0.152 | 0.032 | 0.018 | 0.24 | > 20
8 | GLQQATPGPA [Peptide 9013.0143] | 4.87 | 0.22 | 0.0039 | > 20 | > 20
9 | VLAEAMSHT [Peptide 1539.06] | 0.243 | 0.016 | 0.0075 | 0.975 | > 20
10 | ALYWYRTGI [Peptide 86.0181] | 0.555 | 0.024 | 0.064 | 4.64 | 4.85
11 | GLFRVYPEL [Peptide 9013.0039] | 0.043 | 0.013 | 0.229 | 1.42 | > 20
12 | TLELFIPNITV [Peptide 9013.0299] | 0.161 | 0.502 | 15.8 | 2.33 | 1.04
13 | GLNRTTVTV [Peptide 9013.0066] | 0.109 | 0.01 | 0.0038 | 4.73 | > 20
14 | CC[C@H](C)[C@H](NC(=O)CNC(=O)[C@@H](NC(=O)[C@@H](NC(=O)[C@H](C)NC(=O)CN)[C@@H](C)O)C(C)C)C(=O)N[C@@H](CCSC)C(=O)N[C@H](C(=O)NCC(=O)N[C@H](C(=O)N[C@H](C(=O)O)C(C)C)C(C)C)[C@@H](C)CC [Peptide 9013.0342] | > 20 | 7.52 | 0.341 | 4.53 | 0.671
15 | HLQVLFIAKI [Peptide 9013.0244] | 5.93 | 0.789 | 0.029 | 0.121 | > 20
16 | RLLQQLLFI [Peptide 1525.10] | 0.027 | 0.07 | 0.046 | 0.019 | > 20
17 | RILQRLLFV [Peptide 1525.27] | 0.064 | 1.59 | 0.011 | 0.073 | > 20
18 | YTCGIQNSV [Peptide 9013.0096] | 1.97 | 0.071 | 0.31 | 0.342 | 0.14
19 | EVFIPNITV [Peptide 9013.0062] | > 20 | > 20 | > 20 | 4.26 | 0.004
20 | IVNTTYLWWV [Peptide 9013.0196] | 5.94 | 1.44 | 0.389 | 0.091 | 0.071
21 | NLNLSCHAV [Peptide 9013.0054] | 0.633 | 0.015 | 0.039 | 7.13 | 2.2
22 | SLYTHLQCL [Peptide 1578.20] | 0.224 | 0.0026 | 0.011 | 0.54 | 8.47
23 | LQLSNDNRTLV [Peptide 9013.0307] | 12.8 | 1.39 | 5.2 | 0.099 | > 20
24 | YLCGIQNSVSA [Peptide 9013.0338] | 0.208 | 0.021 | 0.18 | 0.513 | 9.16
25 | SLNRSDPVT [Peptide 9013.0099] | > 20 | 0.121 | 2.49 | > 20 | > 20
26 | VLAEAMAAA [Peptide 1516.12] | 0.017 | 0.0019 | 0.0032 | 0.016 | 0.639

Row | Molecule | IC50 (HLA-A*0201 (HLA-A2.1)) [µM] | IC50 (A*0202) [µM] | IC50 (A*0203) [µM] | IC50 (A*0206) [µM] | IC50 (A*6802) [µM]
27 | RILQQMLFI [Peptide 1525.22] | 0.187 | 0.709 | 0.241 | 0.108 | > 20
28 | QQIEFVSFL [Peptide 1578.16] | 0.019 | 0.0033 | 0.014 | 0.049 | 0.044
29 | FLSYFKLFL [Peptide 1578.37] | 0.03 | 0.0021 | 0.0086 | 0.045 | 4.75
30 | FLGALKSFV [Peptide 1593.56] | 0.093 | 0.0011 | 0.0011 | 0.079 | 0.822
31 | QQSTQELFV [Peptide 9013.0056] | 1.59 | 0.163 | 0.409 | 0.593 | > 20
32 | LLIESTPFNVA [Peptide 9013.0268] | 0.121 | 0.0033 | 0.0035 | 0.107 | > 20
33 | VLAEAMSHV [Peptide 1516.08] | 0.029 | 0.0019 | 0.0055 | 0.089 | 0.304
34 | ILYPNASLLI [Peptide 9013.0145] | 0.088 | 0.0013 | 0.0028 | 0.252 | 3.12
35 | YVSGANLNL [Peptide 9013.0100] | 6.16 | 0.013 | 0.075 | 0.23 | 0.374
36 | RVLQQLLFV [Peptide 1545.05] | 0.01 | 1.01 | 0.029 | 0.0064 | > 20
37 | GLSAGATVGV [Peptide 9013.0250] | 0.097 | 0.0029 | 0.0028 | 1.1 | 1.15
38 | ALYWYRTGL [Peptide 1578.30] | 5.07 | 0.0082 | 0.023 | 11.5 | > 20
39 | ALNTTYLWWV [Peptide 9013.0217] | 0.223 | 0.048 | 0.0056 | 0.578 | 7.7
40 | RILQQLLFA [Peptide 1525.14] | 0.123 | 0.068 | 0.068 | 0.02 | > 20
41 | KTITVSAEV [Peptide 9013.0083] | 0.971 | 0.042 | 0.0026 | 0.079 | 0.015
42 | WLNNQSLPV [Peptide 9013.0070] | – | 0.0013 | 0.0043 | 0.978 | 0.197
43 | YTYYRPGVNV [Peptide 9013.0208] | – | 0.0056 | 0.0029 | 0.075 | 0.007
44 | AQYSWFVNGV [Peptide 9013.0172] | – | 0.0012 | 0.0024 | 0.013 | 12
45 | RILQQLLFT [Peptide 1525.13] | – | 5.69 | 5.25 | 0.491 | > 20
46 | WQRLLLTASLV [Peptide 9013.0253] | – | 0.246 | 0.019 | 0.496 | > 20
47 | TLGIMIGVLV [Peptide 9013.0251] | – | 0.087 | 0.197 | 2.24 | 1.78
48 | NLAEGKEVLL [Peptide 9013.0134] | – | 0.0092 | 2.03 | 16.9 | > 20
49 | QLHTQVLFI [Peptide 9013.0103] | – | 0.022 | 0.039 | 5.52 | > 20
50 | VQWAFDNEV [Peptide 86.0209] | – | 1.5 | 4.52 | 0.031 | > 20
51 | ILQHTQELFI [Peptide 9013.0212] | – | 0.049 | 0.594 | > 20 | > 20
52 | RVYVCGIQNSV [Peptide 9013.0336] | – | 0.00022 | 0.0036 | 0.305 | 6.32
